Test results from patent publication US20060183147A1, “Methods of identifying genes which modulate myelination” (Elan Pharmaceuticals, Inc., priority 2005, published 2006).

What was measured:
[1] = tested on: cortical oligodendrocytes; conditions: added to the co-cultures; cited from earlier work
[2] = tested on: optic nerve oligodendrocytes; assay: In vitro myelination assay: co-culture of retinal ganglion cells and optic nerve oligodendrocytes; type: cell-based, rat
Experimental: Co-cultures of RGCs and optic nerve oligodendrocytes were prepared and used as follows. Purified oligodendrocytes were plated on PDL/merosin (Chemicon) substrate-coated tissue culture dishes in defined DMEM Sato medium, promoting proliferation for two days. After 2 days, the medium was switched to defined DMEM Sato medium, which contained factors to promote differentiation. Twenty-four hours after the switch to differentiation medium, ADORA1 agonists were added. Retinal ganglion cells were plated 24 hours thereafter, and the medium consisted of 50% astrocyte-conditioned medium (method see above) with DMEM Sato medium mixed with fresh defined Neurobasal™ (Invitrogen) Sato medium, containing B27™ supplement and growth factors (BDNF and CNTF), to promote retinal ganglion cell survival and 0.5% FBS. The FBS was added to help retinal ganglion cell survival. This is because forskolin, which up-regulates cAMP, could not be used when adding any ADORA agonists or antagonists, since these receptors are G-protein-coupled receptors and therefore, regulators of cAMP themselves. Cultures were grown for two weeks, with medium changes occurring every three days.
Optic nerve or cortical oligodendrocytes were purified from postnatal day 2-day 5 old rat pups by immuno-panning with the A2B5 antibody (ATCC). Retinal ganglion cells were purified from 5 day old rats by immunopanning with the Thy1 antibody T11D7.
Purified oligodendrocytes were plated on PDL/merosin substrate-coated tissue culture dishes in defined DMEM Sato medium, promoting proliferation for two days. After 2 days, the medium was switched to defined DMEM Sato medium, containing factors promoting differentiation. Twenty-four hours after the switch to differentiation medium, ADORA1 agonists were added. Retinal ganglion cells were plated 24 hours thereafter, and medium consisted of astrocyte-conditioned medium with DMEM Sato medium mixed with defined Neurobasal™ Sato medium, containing growth factors promoting retinal ganglion cell survival and 0.5% FBS.
Cultures were grown for two weeks, with medium changes occurring every three days. Control co-cultures were devoid of myelin segments, whereas oligodendrocytes co-cultures with ADORA1 agonist contained myelin segments originating from approximately 90% of the oligodendrocytes in these cultures.
To address whether the effect of the adenosine 1 receptor (ADORA1) agonist only affects oligodendrocytes, or also affects retinal ganglion cells (RGCs) to lead to myelination, purified rat optic nerve oligodendrocytes were plated on PEI-pre-coated culture dishes (6-well plates, Falcon BD) in mitogenic medium and cultured for two days. After two days, oligodendrocytes were switched to differentiation medium and the agonist MECA (Sigma) was added at a 200 μM concentration to this culture medium 24 hours later. The agonist was removed by washing the cells at 24, 48 and 72 hours, respectively, after its administration. Oligodendrocytes were subsequently taken off the PEI plates by incubation with Trypsin (535 units/ml) in Earle's Balanced Salt Solution (EBSS; Invitrogen) at 37° C. for 5 minutes, washed with PBS containing 30% FBS (Hyclone) and were plated onto RGCs grown for one week on PDL/merosin substrate. Cultures were fixed for immunohistochemistry two weeks after co-plating the oligodendrocytes with the RGCs. Since the oligodendrocytes were pre-incubated separately with the ADORA1 agonist before they were added to the RGCs, the myelin figures observed in FIG. 6 are due to the switch in the oligodendrocytes themselves from a non-myelinating to a myelinating phenotype.
To address the question of whether it is a permanent or a reversible switch if the oligodendrocytes are cultured without neurons, oligodendrocytes were treated with ADORA1 agonist for 72 hours and kept in culture alone for another 5 days. Cultured oligodendrocytes were then removed from the PEI-coated plate and co-cultured with RGCs grown for one week in culture. […]

[3] = tested on: MOG surface expression in optic nerve oligodendrocytes; assay: MOG cell surface label, optic nerve oligodendrocytes; type: cell-based, rat; conditions: after 6 days; control oligodendrocytes up-regulated MOG
Experimental: (§1) Purified rat optic nerve and enriched rat cortical oligodendrocytes were first grown in mitogenic medium and then switched to differentiation medium. Stimulated oligodendrocytes received the ADORA1 agonist, MECA, 24 hours later. Optic nerve oligodendrocytes were assessed 2, 4, and 6 days post MECA treatment, cortical oligodendrocytes, 3, 5, and 7 days post treatment. For the MOG cell surface label, cells were incubated with the anti-MOG antibody (1 μg/ml) for one hour at room temperature in phosphate buffered saline (PBS) containing sodium-pyruvate and glucose (Invitrogen) to ensure survival of cells during this time. Subsequently the cells were fixed, incubated in PBS containing 50% goat serum at RT for 30 minutes and incubated with a secondary antibody (FITC- or Cy3-coupled goat anti-mouse IgG antibody from Jackson Immunoresearch).

[4] = tested on: rhoA expression in rat optic nerve oligodendrocytes; assay: rhoA expression by Quantitative RT-PCR in MECA-treated oligodendrocytes; type: cell-based
Experimental: Primers and probes were designed using the Primer Express software from Applied Biosystems. Probes were designed with 6-FAM as fluorophore at the 5′end and TAMRA as quencher at the 3′ end. QRT-PCR reactions were set up as a one-step reaction using 20 ng of total RNA as template, and included 1× Taqman™ buffer, 5 mM MgCl2, 1.5 mM dNTP mix, 300 nM forward and reverse primers, […] Taqman™ probe, 20 units RNase inhibitor, 5 units Multiscribe™ MuLV reverse transcriptase and 2 units AmpliTaq™ Gold DNA polymerase in a 50 microliter reaction. All reagents used were from Applied Biosystems. Reactions were run on a ABI 7500 using the following cycling conditions: “Hold” at 48° C. for 30 minutes, “Hold” at 95 for 10 minutes, “Denature” at 95° C. for 15 seconds, and “Anneal/Extend” at 60° C. for 1 minute. The last two steps were repeated for 40 cycles.
RhoA is a member of the Ras superfamily of small GTPases and functions as a GDP/GTP—regulated binary switch that regulates signal transduction pathways controlling actin cytoskeletal reorganization. […] Expression of rhoA was determined by Quantitative RT-PCR in oligodendrocytes treated with MECA or untreated for various times, as set forth below. […] Quantitative RT-PCR was set up as per standard protocol as a single step reaction. […]

[5] = tested on: optic nerve oligodendrocytes; assay: Gene expression profiling (Affymetrix Rat genome 230 2.0), control vs 3-day MECA stimulated ON-oligodendrocytes; type: cell-based; conditions: p-value <0.05
Text: To identify transient versus long-term gene expression changes, control and 3-day ADORA1 agonist (MECA) stimulated optic nerve oligodendrocytes were compared. As described elsewhere herein, 3 days of ADORA1 stimulation were sufficient to obtain myelin segments in the optic nerve myelination system. RNA samples were generated in triplicate, each replicate generated by pooling RNA from two separate oligodendrocyte preps (one prep from 12 litters of post-natal day 4 SD pups). RNA samples were analyzed for gene expression profiling using the Affymetrix GeneChip™ Rat genome 230 2.0 Array that provides coverage of approximately 30,000 transcripts. RNA was amplified using the MessageAmp II aRNA kit from Ambion to generate sufficient amounts of RNA for hybridization to arrays, as previously described.

[6] = tested on: MOG surface expression in cortical oligodendrocytes; assay: MOG cell surface label, cortical oligodendrocytes (time course and dose response); type: cell-based, rat
Experimental: as §1
To determine whether the surface expression of MOG would follow the same time course as that observed for the ADORA1 agonist, MECA, in the optic nerve myelination system, oligodendrocyte-enriched cortical cells were plated on PEI-coated plates in mitogenic medium, containing PDGFAA, and NT3 as factors stimulating proliferation. After 3 days, cells were switched to differentiation medium containing CNTF and NT3. 200 μM MECA was added either the same day or 24 hours later and was incubated on the cells for 24 hours, 48 hours, 72 hours, 4 days, and 7 days continuously. The cells were surface-labeled with an antibody to MOG, after the described incubation. For the ADORA1 agonist dose response experiment, MECA was added at concentrations of 200 μM, 100 μM, 50 μM, 25 μM and 12.5 μM, 24 hours after switching to differentiation medium, and was incubated on the cells continuously. On day 7, cells were surface-labeled with an anti-MOG antibody.

[7] = tested on: cortical oligodendrocytes; assay: Gene expression profiling (Affymetrix Rat 230 2.0), control vs 1-day MECA stimulated cortical oligodendrocytes; type: cell-based
Text: As a second filter to determine which genes were commonly regulated between pure optic nerve and enriched cortical oligodendrocytes, gene expression analysis comparing non-myelinating cortical oligodendrocytes with 1-day MECA induced cortical oligodendrocytes committed to myelination was made. Since cortical oligodendrocyte cell preparations yield larger numbers of cells, determining overlap between 1-day MECA treated ON-oligodendrocytes and 1-day MECA treated cortical oligodendrocytes help determine if use of cortical oligodendrocytes for future experiments to test genes of interest is a feasible option. Cortical oligodendrocytes were isolated from 2 litters of newborn SD rat pups. RNA for replicates were isolated from the cells which were plated on 3 separate 6-well tissue culture plates (approximately 500,000 cells per well) with control and treated cells included in separate wells on each plate. The important caveat to keep in mind when comparing gene expression in cortical oligodendrocytes with ON-oligodendrocytes is that the cortical oligodendrocytes are not a pure cell population. Cortical oligodendrocytes comprise approximately 80% oligodendrocytes and about 20% astrocytes, with some neuronal cells. Total RNA was generated in triplicate and hybridized to Affymetrix GeneChip™ Rat 230 2.0 arrays with approximately 30,000 genes. RNA submitted for analysis was amplified using the MessageAmp II aRNA kit from Ambion to generate sufficient amounts of RNA for hybridization to arrays and to keep sample preparation conditions similar to 1-day control and MECA treated ON-oligodendrocytes set forth elsewhere herein. Table 2 provides a summary of differentially regulated genes from comparison of control and 1-day MECA stimulated cortical oligodendrocytes.

[8] = tested on: optic nerve oligodendrocytes; assay: Gene expression profiling, control vs 1-day MECA-treated ON-oligodendrocytes; type: cell-based, rat; conditions: p-value <0.05, 1.2 fold-change cutoff
Experimental: Based on the results obtained with rhoA expression, 24 hours was selected as the first time point in a broader gene expression analysis. Total RNA was isolated from control, and MECA-stimulated oligodendrocytes were harvested 24 hours after the addition of MECA. RNA samples were generated in triplicate, each replicate generated by pooling RNA from three separate oligodendrocyte preps (one prep from 12 litters (10 pups each) of post-natal day 5 SD pups). RNA samples were analyzed by gene expression profiling using the Affymetrix GeneChip™ Rat genome 230 2.0 Array that provides coverage of approximately 30,000 transcripts, i.e., the entire transcribed rat genome. RNA submitted was amplified by Expression Analysis using the MessageAmp II aRNA kit from Ambion to generate sufficient amounts of RNA for hybridization to arrays. A2B5 and cells were plated in 6-well plates and allowed to divide for 48 hours. Approximately 500,000 cells were plated per well. Two micrograms of RNA was subsequently used for analysis.
To identify gene expression changes occurring during myelination, total RNA was isolated from control and MECA-stimulated oligodendrocytes 24 hours after the addition of MECA. RNA samples were generated in triplicate, each replicate generated by pooling RNA from three separate oligodendrocyte preps. RNA samples (2 μg/sample) were submitted to Expression Analysis for gene expression profiling using the Affymetrix GeneChip™ Rat genome 230 2.0 Array that provides coverage of approximately 30,000 transcripts. RNA submitted using the MessageAmp II aRNA kit from Ambion to generate sufficient amounts of RNA for hybridization to arrays.

SMILES: Nc1ncnc2c1ncn2[C@@H]1O[C@H](CO)[C@@H](O)[C@H]1O [adenosine]
- amount of myelin observed [1]: increased the amount of myelin observed
- adenosine responsiveness as measured by percentage of myelination ([2]; early versus late stage of oligodendrocyte differentiation): more responsive to adenosine at the early stage of differentiation
- oligodendrocytes establishing segments of myelin on individual axons ([2]; in the presence of adenosine or ADORA1 agonist, co-culture grown two weeks, control devoid of myelin segments): approximately 90%

SMILES: CNC(=O)[C@H]1O[C@@H](n2cnc3c(N)ncnc32)[C@H](O)[C@@H]1O [MECA, 5′-N-methylcarboxamidoadenosine]
- MOG protein expression on the cell surface [3]: remained low
- rhoA expression compared to control (untreated) ([4]; day 1 of MECA treatment, n=3): two-fold reduction
- rhoA expression compared to control (untreated) ([4]; other time points (6 hours, 16 hours, 2 days, 3 days)): No significant differences
- differentially regulated genes, fold change >1.1 fold [5]: 2721 genes
- differentially regulated genes, fold change >1.2 fold [5]: 2428 genes
- differentially regulated genes, fold change >1.5 fold [5]: 1021 genes
- down-regulated changes [5]: 52%
- up-regulated changes [5]: 48%
- time MECA must be present to repress MOG surface expression ([6]; 200 μM MECA): at least 72 hours
- MOG protein expression on the cell surface ([6]; after 7 days, control oligodendrocytes up-regulated MOG): remained low
- concentrations insufficient to repress MOG surface expression ([6]; continuous incubation, surface label on day 7): below 100 μM
- differentially regulated genes, fold change >1.1 fold ([7]; p-value <0.05): 1969 genes
- differentially regulated genes, fold change >1.2 fold ([7]; p-value <0.05): 1425 genes
- differentially regulated genes, fold change >1.5 fold ([7]; p-value <0.05): 252 genes
- down-regulated changes ([7]; p-value <0.05): 49%
- up-regulated changes ([7]; p-value <0.05): 51%
- total differentially regulated genes in the group comparison ([7]; p-value <0.05, 1.2 fold-change cutoff): 1339 genes
- genes exclusive to cortical oligodendrocytes ([7]; p-value <0.05, 1.2 fold-change cutoff, versus ON-oligodendrocytes): 925 genes
- amount of myelin figures with continuous agonist ([2]; MECA present throughout the two weeks of co-culture with RGCs): optimal amount of myelin figures
- myelin formation versus control cultures ([2]; after eight days in co-culture): myelin was observed covering the whole length of an axon
- myelin formation versus control cultures ([2]; after five days in co-culture): no significant difference
- myelin formation versus control cultures ([2]; after two weeks in co-culture): the segments (internodes) form
- switch from non-myelinating to myelinating phenotype: permanent or reversible ([2]; agonist 72 hours, then 5 days in culture alone, then co-culture with RGCs two weeks): permanent switch
- doses that would not produce myelin segments ([2]; optic nerve myelination system dose-response): below 100 μM
- overlap of differentially regulated genes between ON- and cortical oligodendrocytes [8]: 414 genes
- total differentially regulated genes in the group comparison [8]: 1831 genes
- genes exclusive to ON-oligodendrocytes ([8]; versus cortical oligodendrocytes): 1417 genes
